Assay: in vivo
Details: male, C57Bl/6, mouse
Experimental: The goals of these studies were to evaluate the PK of memantine (hydrochloride salt) in Sprague-Dawley rats and C57Bl/6 mice following a single intravenous bolus (iv; 1 mg eq./kg), oral gavage (po; 1 and 10 mg eq./kg), or subcutaneous (sc; 1 and 10 mg eq./kg) administration.
Sprague Dawley (SD) rats (138 adult males), and C57Bl/6 mice (140 adult males), were obtained (Hilltop Laboratories, Scottsdale, PA); 123 per species were used in the study and the remainder provided blank matrix. Animals were individually identified by tail markings and were acclimated to the study environment for 16-21 days prior to dose administration. Animals were individually housed in suspended wire caging, and were kept on a 12h/12h light/dark cycle except when interrupted for study procedures. Average room temperature was regulated in the range 18 to 29°C, average relative humidity of 30-70%, and an average daily airflow >10 fresh air changes/h. Animals were fed LabDiet^Ò Certified Rodent Diet 5002 Meal food ad libitum, except during fasting prior to dose administration, and had access to water ad libitum.
Memantine was dosed as a solution in physiological saline as a single dose via intravenous bolus (1 mg eq./kg), oral gavage (po; 1 and 10 mg eq./kg), or subcutaneous (sc; 1 and 10 mg eq./kg) administration. The concentration of memantine in the 1 mg eq./kg iv, po, and sc solutions dosed to rats was 1 mg eq./mL, and the dose volume was 1 mL/kg. The concentration of memantine for the same dose level administered to mice was 0.2 mg eq./mL, and the dose volume was 5 mL/kg. The concentration of memantine in the 10mg eq./kg po and sc solutions was 5 mg eq./mL and the dose volume was 2 mL/kg for both rats and mice.
Details of the dose administration, body weights, clinical observations, plasma and brain sample collection and preparation are not shown in this report but are available upon request. Blood (for preparation of plasma) and brain samples were collected at 0.08, 0.25, 0.5, 1, 2, 4, 8, and 24h post-dose.
Since all time points were terminal, mean memantine concentrations per time point were used to calculate the composite PK parameters by non-compartmental analysis using WinNonlin program, version 5.2 (Pharsight Corp., Mountain View, California). A model was selected based on the vascular (iv bolus) or extravascular (po or sc) routes of administration. For the iv route, plasma concentration at time zero was back extrapolated from the first two observed post dose plasma concentrations. For the po and sc routes, concentration at time zero was assumed to be zero. Plasma and tissue concentrations below the limit of quantitation were treated as absent samples for the purpose of calculating the mean plasma concentration values or for calculating PK parameters.
The area under the plasma concentration versus time curve (AUC) was calculated using the linear trapezoidal method (linear interpolation). When appropriate, the terminal elimination phase of the PK profile was estimated based on the best fit (r^2) using at least the last three observed concentrations. PK parameters describing the systemic exposure of memantine in plasma and brain were estimated from observed (rather than predicted) plasma/brain concentrations, the dosing regimen, the AUC, and the terminal elimination phase rate constant (kel) for each group. The portion of the AUC from the last measurable concentration to infinity was estimated from the equation Ct/kel, where Ct represents the last measurable concentration. The extrapolated portion of the AUC was used for the determination of AUC0-∞. The percent bioavailability (%F) was calculated by dividing the dose normalized extravascular plasma AUC0-∞ by the dose normalized iv plasma AUC0-∞ times 100. The bioavailability calculations assumed concentrations were in the linear range.
Concentrations of memantine in rat and mouse plasma and brain were determined using an LC-MS/MS assay developed at ABC Laboratories.

With `CC12CC3CC(C)(C1)CC(N)(C3)C2` [memantine] the “Cmax and exposures increase, fold more than dose-proportional” value was ~ 1.5 fold, the Cmax/Cmin ratios was over 100 and the “Contribution of active transport to clearance” value was over 100%. The “delay in Tmax for brain compared to plasma” value was 0.25 to 1.5 h, the elimination half-life was under 4 h and the “total systemic clearance, times higher than GFR” value was about 4.5 fold. The “C max/ C min ratio” value (10 mg/kg) was 760, the concentration at 24 h (10 mg/kg) was 10 nM and the Tmax (10 mg/kg, T max) was 0.5 to 1 h. The Tmax (Tmax after extravascular administration) was 0.25 to 0.5 h, the half-life (brain elimination half-lives after extravascular administrations) was 2.16 to 3.05 h and the half-life (elimination half-life) was 3 to 4 h. The Cmax (in vivo, iv, 1 mg/kg) was 7700 nM, the Cmax (in vivo, sc, 1 mg/kg) was 527 nM and the “Half-life (t½)” value (iv, 1 mg/kg) was 2.98 h. It also gave an MRT inf (iv, 1 mg/kg) of 2.35 h, a clearance (iv, 1 mg/kg) of 63.5 mL/min/kg and a half-life (iv, 1 mg/kg, Half-life (t½)) of 1.97 h. It also gave a Tmax (iv, 1 mg/kg, Observed Tmax) of 1 h, a half-life (iv, t 1/2) of 3 h and a bioavailability (po) of 85%. For the same compound, the “Half-life (t½)” value (po, 1 mg/kg) was 3.02 h, the bioavailability (po, 1 mg/kg) was 84.6% and the AUC(0-inf) (po, 1 mg/kg) was 1.2 µM·h. It also gave a Cmax (po, 1 mg/kg, C max) of 500 nM, a half-life (po, 1 mg/kg, Half-life (t½)) of 1.86 h and a Tmax (po, 1 mg/kg, Observed Tmax) of 0.5 h. For the same compound, the Tmax (po, 1 mg/kg, T max) was 0.5 h, the “Half-life (t½)” value (po, 10 mg/kg) was 3.05 h and the bioavailability (po, 10 mg/kg) was 125%. The AUC(0-inf) (po, 10 mg/kg) was 18.2 µM·h, the Cmax (po, 10 mg/kg, C max) was 7600 nM and the half-life (po, 10 mg/kg, Half-life (t½)) was 2.92 h. For the same compound, the “Half-life (t½)” value (sc, 1 mg/kg) was 2.16 h, the bioavailability (sc, 1 mg/kg) was 97.8% and the half-life (sc, 1 mg/kg, Half-life (t½)) was 1.64 h. The Cmax (sc, 1 mg/kg, Observed Cmax) was 5360 nM, the “Half-life (t½)” value (sc, 10 mg/kg) was 3.00 h and the bioavailability (sc, 10 mg/kg) was 150%. It also gave a half-life (sc, 10 mg/kg, Half-life (t½)) of 3.07 h.

Reference: publication PMC3269340, “Pharmacokinetics of memantine in rats and mice” (PLoS Currents, 2012)
